Active and inactive are the calls of the source. The calls are words filed in the database; no cut-off is given here.
Key:
[1] = biological target: 3',5'-cyclic-AMP phosphodiesterase 4B (Homo sapiens) (UniProt Q07343); experiment: Inhibition of PDE4B (unknown origin) expressed in HEK293 cells assessed as increase in forskolin-stimulated cAMP level at 30 uM preincubated for 30 mins followed by forskolin-stimulation measured after 4 hrs by luciferase reporter gene assay relative to control; format: functional, cell-based
[2] = biological target: 3',5'-cyclic-AMP phosphodiesterase 4B (Homo sapiens) (UniProt Q07343); experiment: Inhibition of PDE4B (unknown origin) expressed in HEK293 cells assessed as increase in forskolin-stimulated cAMP level preincubated for 30 mins followed by forskolin-stimulation measured after 4 hrs by luciferase reporter gene assay; format: functional, cell-based

Chain of 3',5'-cyclic-AMP phosphodiesterase 4B (Homo sapiens) (Q07343 whole entry): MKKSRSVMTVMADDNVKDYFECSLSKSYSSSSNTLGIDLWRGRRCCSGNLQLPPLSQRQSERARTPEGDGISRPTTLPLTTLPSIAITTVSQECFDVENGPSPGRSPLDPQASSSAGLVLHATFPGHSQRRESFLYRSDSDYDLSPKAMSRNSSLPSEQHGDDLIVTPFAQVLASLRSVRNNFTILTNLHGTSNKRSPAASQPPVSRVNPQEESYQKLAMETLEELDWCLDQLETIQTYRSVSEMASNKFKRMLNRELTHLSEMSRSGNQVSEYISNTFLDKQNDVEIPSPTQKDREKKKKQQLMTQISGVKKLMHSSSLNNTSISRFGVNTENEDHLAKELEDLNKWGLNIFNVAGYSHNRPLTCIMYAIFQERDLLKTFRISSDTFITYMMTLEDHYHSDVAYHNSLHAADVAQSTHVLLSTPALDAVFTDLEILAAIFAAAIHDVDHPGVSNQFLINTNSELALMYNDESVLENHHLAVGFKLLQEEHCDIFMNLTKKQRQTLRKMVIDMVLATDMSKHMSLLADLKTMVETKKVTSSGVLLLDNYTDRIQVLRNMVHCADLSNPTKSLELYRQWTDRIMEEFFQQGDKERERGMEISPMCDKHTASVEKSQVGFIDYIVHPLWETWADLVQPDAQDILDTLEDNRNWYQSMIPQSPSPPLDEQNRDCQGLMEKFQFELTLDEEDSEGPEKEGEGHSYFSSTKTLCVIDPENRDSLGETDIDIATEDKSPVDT

Row | Structure (SMILES) | inhibition [1] | inhibition [2] | fold change (FC) [1]
1 | CS(=O)(=O)n1c(COCCN2COc3ccccc3C2=O)cc2cc(C#N)ccc21 | Active | – | –
2 | CC(=O)c1ccc2c(c1)cc(COCCN1COc3ccccc3C1=O)n2S(C)(=O)=O | inactive | – | –
3 | CS(=O)(=O)n1c(COCCN2COc3ccccc3C2=O)cc2cc(C(F)(F)F)ccc21 | Active | – | –
4 | COc1ccc(C2CNC(=O)C2)cc1OC1CCCC1 (centres undefined) | – | – | > 7
5 | O=C1c2ccccc2OCN1CCOCc1cc2ccccc2o1 | Active | – | –

Further lines, results first:

Row | inhibition [1] | inhibition [2] | fold change (FC) [1] | Structure (SMILES)
6 | Active | – | – | CS(=O)(=O)n1c(COCCN2COc3ccccc3C2=O)cc2cc(F)ccc21
7 | Active | – | – | CS(=O)(=O)n1c(COCCN2COc3ccccc3C2=O)cc2cc(Cl)ccc21
8 | – | Dose-dependent effect | > 5 | CS(=O)(=O)n1c(COCCN2COc3ccccc3C2=O)cc2cc([N+](=O)[O-])ccc21

— ChEMBL document CHEMBL3112551, “Synthesis of 2H-1,3-benzoxazin-4(3H)-one derivatives containing indole moiety: their in vitro evaluation against PDE4B” (Bioorg Med Chem Lett, 2014)
